# Experimental data: patent US9615577B2, “Herbicidally active cyclic dione compounds, or derivatives therefor, substituted by a phenyl which has an alkynyl-containing substituent” (Syngenta Limited, priority 2012, dated 2017)
# Experiments:
# Format in all cases: in vivo
# [1] = system: Beta vulgaris (BEAVA, sugar beet); assay: Test 1B glasshouse assay for herbicidal activity, post-emergence; conditions: 360 h, 250 g/ha application rate
# Experimental: (§1) Seeds of a variety of monocotyledonous and dicotyledonous test plants are sown in standard soil in pots. The plants are cultivated for one day (for pre-emergence) or for about 12 days (range=10-13 days) (for post-emergence) under controlled conditions in a glasshouse (warm climate species at 24/18° C., cool climate species at 20/16° C., both at day/night; 16 hours light; 65% humidity).
# (§2) An “instant formulation”, known as the “IF50”, containing 50 g/liter (i.e. 5% w/v) of the “technical” (i.e. unformulated) active ingredient is prepared by dissolving the active ingredient in a mixture of organic solvents and emulsifier, details of which are provided in the Table below. This IF50 is then mixed with a small, variable amount of acetone to aid dissolution, before addition of a 0.2% v/v aqueous solution of the adjuvant X-77 (which is a mixture of alkyl aryl polyoxyethylene glycols and free fatty acids in isopropanol, CAS Registry number 11097-66-8), as the aqueous diluent, to form an aqueous spray solution which contains a predetermined concentration of the active ingredient (which varies depending on the application rate of the active ingredient to the plants) and 0.2% v/v of the adjuvant X-77. This aqueous spray solution is then sprayed onto the plants, after one day's cultivation (for pre-emergence) or after about 12 days' cultivation (for post-emergence).
# (§3) The test plants are then grown on, in a glasshouse (greenhouse) under controlled conditions (at either 24/18° C. or 20/16° C. (day/night) as mentioned above; 16 hours light; 65% humidity) and are watered twice daily. Either 15 days after application of the herbicide (15 DAA) (for post-emergence), or 20 days after application of the herbicide (20 DAA) (for pre-emergence), the test plants are evaluated visually, and an assessed percentage phytotoxicity score is given for each herbicidal application on each plant species (where 100%=total damage to plant; 0%=no damage to plant).
# (§4) Cool climate crop plants: Triticum aestivum (TRZAW, winter wheat), Brassica napus (BRSNN, rape, also called oilseed rape or rapeseed), Beta vulgaris (BEAVA, sugar beet).
# [2] = system: Brassica napus (BRSNN, rape); assay: as above; conditions: 360 h; for plant injury at 60 g/ha: 60 g/ha application rate
# Experimental: as §1, §2, §3, §4
# [3] = system: Triticum aestivum (TRZAW, winter wheat); assay: as above; conditions: 360 h; for plant injury at 60 g/ha: 60 g/ha application rate
# Experimental: as §1, §2, §3, §4
# [4] = system: Glycine max (GLXMA, soybean); assay: as above; conditions: 360 h; for plant injury at 60 g/ha: 60 g/ha application rate
# Experimental: as §1, §2, §3
# Warm climate crop plants: Glycine max (GLXMA, soybean).
# [5] = system: Alopecurus myosuroides (ALOMY); assay: as above; conditions: 360 h; for pest or weed control at 60 g/ha: 60 g/ha application rate
# Experimental: as §1, §2, §3
# (§5) Cool climate (“cool season”) grassy monocotyledonous weeds: Alopecurus myosuroides (ALOMY), Avena fatua (AVEFA), Lolium perenne (LOLPE).
# Avena fatua (AVEFA) = assay: as above; conditions: 360 h; for pest or weed control at 60 g/ha: 60 g/ha application rate
# Experimental: as §1, §2, §3, §5
# Lolium perenne (LOLPE) = assay: as above; conditions: 360 h; for pest or weed control at 60 g/ha: 60 g/ha application rate
# Experimental: as §1, §2, §3, §5
# [6] = system: Brachiaria plantaginea (BRAPL); assay: as above; conditions: Urochloa plantaginea; for pest or weed control at 60 g/ha: 60 g/ha application rate
# Experimental: as §1, §2, §3
# (§6) Warm climate (“warm season”) grassy monocotyledonous weeds: Setaria faberi (SETFA), SORVU (Sorghum bicolor (L.) Moench ssp. Bicolor, or Sorghum vulgare Pers.), Digitaria sanguinalis (DIGSA), Echinochloa crus-galli (ECHCG), and Brachiaria plantaginea (BRAPL).
# [7] = system: Digitaria sanguinalis (DIGSA); assay: as above; conditions: 360 h; for pest or weed control at 60 g/ha: 60 g/ha application rate
# Experimental: as §1, §2, §3, §6
# [8] = system: SORVU (Sorghum bicolor (L.) Moench ssp. Bicolor, or Sorghum vulgare Pers.); assay: as above; conditions: 360 h, 250 g/ha application rate
# Experimental: as §1, §2, §3, §6
# Setaria faberi (SETFA) [9] = assay: as above; conditions: 360 h; for pest or weed control at 60 g/ha: 60 g/ha application rate
# Experimental: as §1, §2, §3, §6
# [10] = system: Echinochloa crus-galli (ECHCG); assay: as above; conditions: for pest or weed control at 60 g/ha: 60 g/ha application rate
# Experimental: as §1, §2, §3, §6
# Note: The herbicidal activity data (e.g. post-emergence) shown above in Biological Example 1B for Comparator compounds X-9 and X-10 is thought likely to have been measured some years ago, probably using a variant of the above-described test method. Also, for the post-emergence activity of X-9 and X-10 it is not currently known exactly how many days after application of the herbicide the phytotoxicity on the plants was measured.
# [11] = system: Abutilon theophasti Medik. (ABUTH); assay: Test 1A glasshouse assay for herbicidal activity, pre-emergence; conditions: 312 h, evaluated after 13 days, read-out: percentage phytotoxicity ABUTH
# How it was run: (§7)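 Glasshouse spray test with visual phytotoxicity scoring (0–100%) after 13 days. Application timing: 1 day after sowing or after 8 days' cultivation, in 0.5% Tween 20 acetone/water.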
# [12] = system: Alopecurus myosuroides (ALOMY); assay: as above; conditions: 312 h, evaluated after 13 days, read-out: percentage phytotoxicity ALOMY
# How it was run: as §7
# [13] = system: Amaranthus retroflexus (AMARE); assay: as above; conditions: 312 h, evaluated after 13 days, read-out: percentage phytotoxicity AMARE
# How it was run: as §7
# [14] = system: Echinochloa crus-galli (ECHCG); assay: as above; conditions: 312 h, evaluated after 13 days, read-out: percentage phytotoxicity ECHCG
# How it was run: as §7
# Setaria faberi (SETFA) [15] = assay: as above; conditions: 312 h, evaluated after 13 days, read-out: percentage phytotoxicity SETFA
# How it was run: as §7
# [16] = system: Abutilon theophasti Medik. (ABUTH); assay: Test 1A glasshouse assay for herbicidal activity, post-emergence; conditions: 312 h, evaluated after 13 days, read-out: percentage phytotoxicity ABUTH
# How it was run: as §7
# [17] = system: Alopecurus myosuroides (ALOMY); assay: as above; conditions: 312 h, evaluated after 13 days, read-out: percentage phytotoxicity ALOMY
# How it was run: as §7
# [18] = system: Amaranthus retroflexus (AMARE); assay: as above; conditions: 312 h, evaluated after 13 days, read-out: percentage phytotoxicity AMARE
# How it was run: as §7
# [19] = system: Echinochloa crus-galli (ECHCG); assay: as above; conditions: 312 h, evaluated after 13 days, read-out: percentage phytotoxicity ECHCG
# How it was run: as §7
# Setaria faberi (SETFA) [20] = assay: as above; conditions: 312 h, evaluated after 13 days, read-out: percentage phytotoxicity SETFA
# How it was run: as §7
# [21] = system: Alopecurus myosuroides (ALOMY); assay: Biological Example 2 comparative herbicidal data, post-emergence glasshouse screen; conditions: 312 h, read-out: Post-emergence herbicidal activities (percentage phytotoxicity) ALOMY
# How it was run: (§8)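 Plants grown 8 days in a glasshouse (24/16°C day/night, 14 h light, 65% humidity) were sprayed with compound in acetone/water (50:50) containing 0.5% Tween 20. They were kept under the same conditions and watered twice daily. Phytotoxicity was scored visually after 13 days (0 = no damage, 100 = total damage).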
# [22] = system: Echinochloa crus-galli (ECHCG); assay: as above; conditions: 312 h, read-out: Post-emergence herbicidal activities (percentage phytotoxicity) ECHCG
# How it was run: as §8
# Setaria faberi (SETFA) [23] = assay: as above; conditions: 312 h, read-out: Post-emergence herbicidal activities (percentage phytotoxicity) SETFA
# How it was run: as §8
# [24] = system: Amarantus retroflexus (AMARE); assay: as above; conditions: Amaranthus retroflexus, read-out: Post-emergence herbicidal activities (percentage phytotoxicity) AMARE
# [25] = system: Abutilon theophasti Medik. (ABUTH); assay: as above; conditions: read-out: Post-emergence herbicidal activities (percentage phytotoxicity) ABUTH
structure (smiles),measurement,setting,value
CC#Cc1cc(Cl)c(C2C(=O)C3CCC(C3)C2=O)c(OCCOC)c1 (stereo not shown) [Compound A-18],plant injury at 250 g/ha,[1],30%
same,plant injury at 250 g/ha,[2]; 250 g/ha application rate,30%
same,plant injury at 250 g/ha,[3]; 250 g/ha application rate,10%
same,plant injury at 250 g/ha,[4]; 250 g/ha application rate,20%
same,pest or weed control at 250 g/ha,[5]; 250 g/ha application rate,0%
same,pest or weed control at 250 g/ha,Avena fatua (AVEFA); 250 g/ha application rate,20%
same,pest or weed control at 250 g/ha,Lolium perenne (LOLPE); 250 g/ha application rate,0%
same,pest or weed control at 250 g/ha,[6]; 250 g/ha application rate,70%
same,pest or weed control at 250 g/ha,[7]; 250 g/ha application rate,90%
same,pest or weed control at 250 g/ha,[8],100%
same,pest or weed control at 250 g/ha,Setaria faberi (SETFA) [9]; 250 g/ha application rate,80%
same,pest or weed control at 250 g/ha,"[10]; Echinochloa crus-galli, 250 g/ha application rate",90%
"C#Cc1cc(C)c(C2C(=O)CC(c3ccccn3)CC2=O)c(C)c1 (stereo not shown) [Compound X-4, reference compound]",pest or weed control at 30 g/ha,[11]; 30 g/ha,0%
same,pest or weed control at 250 g/ha,[11]; 250 g/ha,0%
same,pest or weed control at 30 g/ha,[12]; 30 g/ha,0%
same,pest or weed control at 250 g/ha,[12]; 250 g/ha,70%
same,pest or weed control at 30 g/ha,[13]; 30 g/ha,0%
same,pest or weed control at 250 g/ha,[13]; 250 g/ha,0%
same,pest or weed control at 30 g/ha,[14]; 30 g/ha,30%
same,pest or weed control at 250 g/ha,[14]; 250 g/ha,90%
same,pest or weed control at 30 g/ha,Setaria faberi (SETFA) [15]; 30 g/ha,40%
same,pest or weed control at 250 g/ha,Setaria faberi (SETFA) [15]; 250 g/ha,100%
same,pest or weed control at 30 g/ha,[16]; 30 g/ha,0%
same,pest or weed control at 250 g/ha,[16]; 250 g/ha,80%
same,pest or weed control at 30 g/ha,[17]; 30 g/ha,60%
same,pest or weed control at 250 g/ha,[17]; 250 g/ha,80%
same,pest or weed control at 30 g/ha,[18]; 30 g/ha,0%
same,pest or weed control at 250 g/ha,[18]; 250 g/ha,0%
same,pest or weed control at 30 g/ha,[19]; 30 g/ha,40%
same,pest or weed control at 250 g/ha,[19]; 250 g/ha,100%
same,pest or weed control at 30 g/ha,Setaria faberi (SETFA) [20]; 30 g/ha,50%
same,pest or weed control at 250 g/ha,Setaria faberi (SETFA) [20]; 250 g/ha,100%
same,pest or weed control at 8 g/ha,[21]; 8 g/ha application rate,40%
same,pest or weed control at 30 g/ha,[21]; 30 g/ha application rate,60%
same,pest or weed control at 8 g/ha,[22]; 8 g/ha application rate,20%
same,pest or weed control at 30 g/ha,[22]; 30 g/ha application rate,40%
same,pest or weed control at 8 g/ha,Setaria faberi (SETFA) [23]; 8 g/ha application rate,40%
same,pest or weed control at 30 g/ha,Setaria faberi (SETFA) [23]; 30 g/ha application rate,50%
same,pest or weed control at 8 g/ha,[24]; 8 g/ha application rate,0%
same,pest or weed control at 30 g/ha,[24]; 30 g/ha application rate,0%
same,pest or weed control at 8 g/ha,[25]; 8 g/ha application rate,0%
same,pest or weed control at 30 g/ha,[25]; 30 g/ha application rate,0%
"Cc1cc(C)c(C2C(=O)C3CCC(C3)C2=O)c(C)c1 (stereo not shown) [Compound X-9, reference compound]",plant injury at 60 g/ha,[2],0%
same,plant injury at 125 g/ha,[2]; 125 g/ha application rate,20%
same,plant injury at 60 g/ha,[3],0%
same,plant injury at 125 g/ha,[3]; 125 g/ha application rate,0%
same,plant injury at 60 g/ha,[4],0%
same,plant injury at 125 g/ha,[4]; 125 g/ha application rate,0%
same,pest or weed control at 60 g/ha,[5],20%
same,pest or weed control at 125 g/ha,[5]; 125 g/ha application rate,40%
same,pest or weed control at 60 g/ha,Avena fatua (AVEFA),0%
same,pest or weed control at 125 g/ha,Avena fatua (AVEFA); 125 g/ha application rate,0%
same,pest or weed control at 60 g/ha,Lolium perenne (LOLPE),0%
same,pest or weed control at 125 g/ha,Lolium perenne (LOLPE); 125 g/ha application rate,40%
same,pest or weed control at 60 g/ha,[6],80%
same,pest or weed control at 125 g/ha,[6]; 125 g/ha application rate,80%
same,pest or weed control at 60 g/ha,[7],70%
same,pest or weed control at 125 g/ha,[7]; 125 g/ha application rate,80%
same,pest or weed control at 60 g/ha,Setaria faberi (SETFA) [9],80%
same,pest or weed control at 125 g/ha,Setaria faberi (SETFA) [9]; 125 g/ha application rate,80%
same,pest or weed control at 60 g/ha,[10]; Echinochloa crus-galli,40%
same,pest or weed control at 125 g/ha,"[10]; Echinochloa crus-galli, 125 g/ha application rate",60%
"CCc1cc(C)cc(CC)c1C1C(=O)C2CCC(C2)C1=O (stereo not shown) [Compound X-10, reference compound]",plant injury at 60 g/ha,[2],0%
same,plant injury at 60 g/ha,[3],20%
same,plant injury at 60 g/ha,[4],0%
same,pest or weed control at 60 g/ha,[5],80%
same,pest or weed control at 60 g/ha,Avena fatua (AVEFA),50%
same,pest or weed control at 60 g/ha,Lolium perenne (LOLPE),70%
same,pest or weed control at 60 g/ha,[6],90%
same,pest or weed control at 60 g/ha,[7],100%
same,pest or weed control at 60 g/ha,Setaria faberi (SETFA) [9],100%
same,post-emergence activity on ECHCG compared with Compound A-5,"[10]; 60 g/ha, probably a variant of the test method, days after application not known",lower post-emergence activity
same,pest or weed control at 60 g/ha,[10]; Echinochloa crus-galli,70%
